Patent publication US20240189375A1, “COMPOSITION COMPRISING A […] AN EXTRACT THEREOF FOR USE IN THE TREATMENT OF A VIRAL DISEASE” (priority 2021, published 2024)

Molecular target: T1, rACE2 (Homo sapiens, UniProt Q9BYF1)
T1 construct: purchased R&D systems, Zug
Experiment: ACE2 enzymatic activity assay with fluorogenic substrate
Assay type: biochemical
Details: range of 0.045 nM to 11100 nM; positive control; read-out: half maximal inhibitory concentration (IC50) of ACE2 catalytic activity
Procedure: The ACE2 enzymatic activity assay was designed to measure the exopeptidase activity of ACE2 and to screen for inhibition. Activity was measured using a commercially available synthetic fluorogenic substrate for ACE2 and rACE2 (R&D systems, Zug). rACE2 was used to generate a standard curve using the assay buffer, 75 mM TRIS, 1M NaCl, ph7.5. Natural extract screening was performed using 100 ng/ml rACE2 and 15 μM ACE2 fluorogenic substrate plus the Chlorella extracts in various concentrations. Subsequently the mixture was incubated for 1 h at 37° C. and measured using Flexstation 3 (Molecular Devices, San Jose, CA, USA) at excitation 320 nm and emission 405 nm.

T1 sequence (Q9BYF1 18-805): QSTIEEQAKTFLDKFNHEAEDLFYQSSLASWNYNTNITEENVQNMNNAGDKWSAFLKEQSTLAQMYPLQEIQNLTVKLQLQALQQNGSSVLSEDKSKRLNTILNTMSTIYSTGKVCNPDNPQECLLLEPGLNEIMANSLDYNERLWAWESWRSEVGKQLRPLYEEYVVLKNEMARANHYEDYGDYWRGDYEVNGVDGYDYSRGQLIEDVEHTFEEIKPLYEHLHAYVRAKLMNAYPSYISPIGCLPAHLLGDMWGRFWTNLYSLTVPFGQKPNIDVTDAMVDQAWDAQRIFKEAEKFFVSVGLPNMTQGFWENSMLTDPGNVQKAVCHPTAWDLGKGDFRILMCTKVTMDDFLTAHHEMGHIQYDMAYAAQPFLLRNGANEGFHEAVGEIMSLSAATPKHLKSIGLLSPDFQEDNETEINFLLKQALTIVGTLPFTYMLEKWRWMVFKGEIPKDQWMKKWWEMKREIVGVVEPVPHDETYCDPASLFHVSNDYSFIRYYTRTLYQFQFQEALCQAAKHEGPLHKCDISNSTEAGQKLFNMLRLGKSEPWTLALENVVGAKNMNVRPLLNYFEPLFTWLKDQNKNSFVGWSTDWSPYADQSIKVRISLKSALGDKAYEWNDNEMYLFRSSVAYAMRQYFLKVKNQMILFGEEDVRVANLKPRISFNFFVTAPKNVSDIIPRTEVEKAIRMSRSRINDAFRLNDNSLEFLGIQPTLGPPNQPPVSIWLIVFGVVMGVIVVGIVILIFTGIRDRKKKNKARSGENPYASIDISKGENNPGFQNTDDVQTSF

CC(C)C[C@H](N[C@@H](Cc1cncn1Cc1cc(Cl)cc(Cl)c1)C(=O)O)C(=O)O [MLN-4760]
IC50: 0.19 nM
